From patent publication US20060014712A1, “Controlled delivery of therapeutic compounds” (CeMines, Inc., priority 2004, published 2006)

How the values were obtained:
SK-MEL-28 [1] = assay: Cell counting after 7 day peptide treatment; assay type: cell-based, human; conditions: CPP mimicking peptides, conc 10 µM, start count 10
Method: (§1) The ability to block interaction of MITF, SOX10 and STAT3 with active transcriptional complex and inhibit proliferation and stimulate apoptosis of melanoma cells were tested on human melanoma cell lines SK-MEL-28 and WM 266-4, and mouse melanoma cell line B16. Methods. Human melanoma cell lines SK-MEL-28 and WM 2664 and mouse melanoma cell line B16 were obtained from the American Tissue Culture Collection (ATCC). Cells were cultured according to recommendations of ATCC (DMEM, 10% FCS, penicillin+streptomycin) and used in experiments after two passages in the laboratory. Cells were grown in 24 well plates, each treatment in triplicates. Cells were plated 16 hours prior treatments started. Peptides were added to the media, and media was changed every day during 7 day experiment. CPP concentration was 10 μM For cell counting, cells were trypsinized (0.25% Trypsin, 2 mM EDTA) in Ca^+2, Mg^+2 free PBS. Cells were precipitated and resuspended in 100 μl of PBS, and 5 μl were removed for counting Methods. Human melanoma cell lines SK-MEL-28 and WM 266-4 were obtained from the American Tissue Culture Collection (ATCC) and were cultured according to recommendations of ATCC (DMEM, 10% FCS, penicillin+streptomycin). Human keratinocytes were obtained from Clonetics and cultured according to manufacturers protocol. Cells were used in experiments after two passages in the laboratory. Cells were grown in 24 well plates, each treatment in triplicates. Cells were plated 16 hours prior treatments started. Peptides were added to the media, and media was changed every day during 7 day experiment. CPP concentration was 10 μM. For cell counting, cells were trypsinized (0.25% Trypsin, 2 mM EDTA) in Ca, Mg free PBS. Cells were precipitated and resuspended in 100 μl of PBS, and 5 μl were removed for counting.

WM 266-4 [2] = assay: Cell counting after 7 day peptide treatment; assay type: cell-based, human; conditions: CPP mimicking peptides, conc 10 µM, start count 10
Method: as §1, with “CPP concentration was 10 μM For cell counting, cells were trypsinized (0.25% Trypsin, 2 mM EDTA) in Ca^+2, Mg^+2 free PBS.” left out, “CPP concentration was 10 μM.” left out

B16 [3] = assay: Cell counting after 7 day peptide treatment; assay type: cell-based, mouse; conditions: CPP mimicking peptides, conc 10 µM, start count 10
Method: The ability to block interaction of MITF, SOX10 and STAT3 with active transcriptional complex and inhibit proliferation and stimulate apoptosis of melanoma cells were tested on human melanoma cell lines SK-MEL-28 and WM 266-4, and mouse melanoma cell line B16. Methods. Human melanoma cell lines SK-MEL-28 and WM 2664 and mouse melanoma cell line B16 were obtained from the American Tissue Culture Collection (ATCC). Cells were cultured according to recommendations of ATCC (DMEM, 10% FCS, penicillin+streptomycin) and used in experiments after two passages in the laboratory. Cells were grown in 24 well plates, each treatment in triplicates. Cells were plated 16 hours prior treatments started. Peptides were added to the media, and media was changed every day during 7 day experiment. […] Cells were precipitated and resuspended in 100 μl of PBS, and 5 μl were removed for counting

SK-MEL-28 [4] = assay: WST-1 test (mitochondrial activity); assay type: cell-based, human; conditions: CPP mimicking peptides, conc 10 µM, untreated = 1
WM 266-4 [5] = assay: WST-1 test (mitochondrial activity); assay type: cell-based, human; conditions: CPP mimicking peptides, conc 10 µM, untreated = 1
Method: Methods. Human melanoma cell lines SK-MEL-28 and WM 2664 and mouse melanoma cell line B16 were obtained from the American Tissue Culture Collection (ATCC). Cells were cultured according to recommendations of ATCC (DMEM, 10% FCS, penicillin+streptomycin) and used in experiments after two passages in the laboratory. Cells were grown in 24 well plates, each treatment in triplicates. Cells were plated 16 hours prior treatments started. Peptides were added to the media, and media was changed every day during 7 day experiment. […] Methods. Human melanoma cell lines SK-MEL-28 and WM 266-4 were obtained from the American Tissue Culture Collection (ATCC) and were cultured according to recommendations of ATCC (DMEM, 10% FCS, penicillin+streptomycin). Human keratinocytes were obtained from Clonetics and cultured according to manufacturers protocol. Cells were used in experiments after two passages in the laboratory. Cells were grown in 24 well plates, each treatment in triplicates. Cells were plated 16 hours prior treatments started. Peptides were added to the media, and media was changed every day during 7 day experiment. […] WST-1 test was performed to measure mitochondrial activity, which can also be used as a measure of cell number.

B16 [6] = assay: WST-1 test (mitochondrial activity); assay type: cell-based, mouse; conditions: CPP mimicking peptides, conc 10 µM, untreated = 1
Method: Methods. Human melanoma cell lines SK-MEL-28 and WM 2664 and mouse melanoma cell line B16 were obtained from the American Tissue Culture Collection (ATCC). Cells were cultured according to recommendations of ATCC (DMEM, 10% FCS, penicillin+streptomycin) and used in experiments after two passages in the laboratory. Cells were grown in 24 well plates, each treatment in triplicates. Cells were plated 16 hours prior treatments started. Peptides were added to the media, and media was changed every day during 7 day experiment. […]

Dct/Trp2 promoter [7] = assay: Transient CAT assay, Dct/Trp2 proximal promoter-CAT construct in SK-MEL-28; assay type: cell-based, human; conditions: CPP concentration 10 μM
Method: (§2) SOX10 and MITF interact with the proximal promoter of Dct/Trp2 gene and induces its activity (Ludwig A. et al., FEBS Lett. 556 (1-3):236-244 (2004)). Thus, a Dct/Trp2 proximal promoter reporter construct was used to analyze effect of mimicking peptides on promoter activity using transient CAT assay.
(§3) Methods. Human melanoma cell lines SK-MEL-28 and WM 266-4 were obtained from the American Tissue Culture Collection (ATCC) and were cultured according to recommendations of ATCC (DMEM, 10% FCS, penicillin+streptomycin). Dct/Trp2 proximal promoter-CAT construct (Ludwig et al., supra) was used in all experiments.
(§4) Cells were transfected by using FuGene reagent (Roche Molecular Biochemicals) according to manufacturer's instructions. Freeze-thaw lysates of cells collected 48 h after the transfection were assayed for CAT activity as described (Pothier, F. et al., DNA Cell Biol. 11(1):83-90 (1992)). At least two different DNA preparations were tested for each plasmid. To normalize the transfection efficiencies, cells were cotransfected with pON260 expressing β-galactosidase (Spaete, R. R. and Mocarski, E. S., J. Virol. 54(3):817-24 (1985); Spaete, R. R. and Mocarski, E. S., J. Virol. 56(1):13543 (1985)). All the CAT activities were normalized to total protein and β-galatosidase activity.
(§5) Following transfection, cells were grown in 6 well plates, each treatment in triplicates. Peptides were added to the media and media was changed every day during the 7 day experiment. CPP concentration was 10 μM.

Dct/Trp2 promoter [8] = assay: Transient CAT assay, Dct/Trp2 proximal promoter-CAT construct in WM 266-4; assay type: cell-based, human; conditions: CPP concentration 10 μM
Method: as §2, §3, §4, §5

“RPKKRKVRRRQLMLEPYALDMSRIRVLSESLGLATQSG [Scr-int1, reference compound]” was tested, and the “Cell Count 7 d” value (SK-MEL-28 [1]) was 53, the “Cell Count 7 d” value (WM 266-4 [2]) was 41 and the “Cell Count 7 d” value (B16 [3]) was 83. For the same sequence, the “WST-1 7 d” value (SK-MEL-28 [4]) was 1, the “WST-1 7 d” value (WM 266-4 [5]) was 1 and the “WST-1 7 d” value (B16 [6]) was 1.1. For the same sequence, the “Dct/Trp2 promoter activity (CAT assay)” value (Dct/Trp2 promoter [7]) was “do not have significant effect” and the “Dct/Trp2 promoter activity (CAT assay)” value (Dct/Trp2 promoter [8]) was “do not have significant effect”.
